Results reported in PMC5459853, “Cathepsin S inhibition combines control of systemic and peripheral pathomechanisms of autoimmune tissue injury” (Scientific Reports, 2017).
“Also recorded” adds a separate entry of the source. Read-outs that look alike come from different tables or passages of the source.

Key:
[1] = biological target: T1, Cat-S in human purified B-cells (Homo sapiens, UniProt P25774); assay: lip10 (p10) accumulation assay in human purified B-cells (p10 ELISA); type: cell-based
T1 construct: Human B-cells were isolated from whole blood; endogenous in cells; host or cells: primary human CD19+ B cells from whole blood of healthy volunteers
T1 sequence (P25774 115-331): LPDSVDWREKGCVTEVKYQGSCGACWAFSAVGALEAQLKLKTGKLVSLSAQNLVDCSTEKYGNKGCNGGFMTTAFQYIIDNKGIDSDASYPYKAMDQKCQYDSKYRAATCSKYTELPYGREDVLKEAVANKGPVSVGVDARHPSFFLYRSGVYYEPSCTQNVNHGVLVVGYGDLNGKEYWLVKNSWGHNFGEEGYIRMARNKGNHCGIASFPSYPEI
Method: Human B-cells were isolated from whole blood using the Whole Blood CD19 Microbeads (Cat#130-090-880, Milteny) with the Whole Blood Column Kit (130-093-545, Milteny) according to the instruction leaflet. Isolated B-cells were adjusted to a cell density of 1 × 10^6 cells/ml in RPMI medium containing 10% FCS and 0.05 mM β-Mercaptoethanol (media and supplements are from Gibco). For each condition 100 µl of cell suspension was transferred into one well of a 96 well cell culture plate, respectively. For detection of p10, cells were treated with different concentrations of RO5459072 for 16 h in a cell culture incubator (37 °C; 5% CO2). Afterwards cells were lysed by adding 100 µl 2x NP-40 lysis buffer (20 mM Tris pH 8.0; 137 mM NaCl; 10% glycerol; 1% NP-40; 2 mM EDTA) containing HALT Protease inhibitor (Cat#78429, Pierce) for 30 min on ice. Before detection of accumulated p10-MHC-II complexes, interfering Ii-MHC-II associates were removed from the cell lysates. […] The CD74-18/3 antibody detects uncleaved invariant chain MHC-II complexes only. Afterwards p10-MHC-II complexes were analyzed by ELISA. For this purpose black Maxisorp plates from NUNC have been coated o/n with PIN.1 (5 µg/ml) from abcam (Cat#ab22603). The next day plates were blocked with blocking buffer for 1 h at 37 °C. Lysates containing 25,000 B-cells per condition were transferred to each well of the ELISA plate respectively and incubated together with the secondary antibody CD74-3/5-Biotin (15 ng/ml) o/n at 4 °C on a shaker. For signal amplification samples were incubated for 30 min with High Sensitive Streptavidin-HRP, 50 ng/ml (Cat#21134, Pierce). The amount of p10 was detected after 30 min of incubation with the QuantaBluTM Fluorogenic Substrate (Cat#15162, Pierce) at 325 nm excitation and 420 nm emission. In between each procedure of the ELISA assay the plates were washed twice with PBS−/− containing 0.05% TWEEN-20.
Supplementary figure 1. Biochemical and pharmacological profile of R05459072. (A)
Upregulation of invariant chain p10 levels in human B-cells was estimated by p10 ELISA, upon
treatment with increasing concentration of RO5459072.
upregulation in B-cells derived from 6 healthy volunteers. […]

[2] = tested on: MRL-(Fas)lpr mice; assay: Intravenous recombinant Cat-S injection: albuminuria and glomerular ultrastructure (TEM); type: in vivo; conditions: 10 µg recombinant Cat-S i.v.
Method: Four-week-old female MRL-(Fas)lpr mice were purchased from Harlan Winkelmann (Borchen, Germany) and kept under pathogen-free conditions in a 12 hour light and dark cycle with free access to food and water. All animal experiments were performed in accordance with the European protection laws of animal welfare, and with approval by the local government authorities Regierung von Oberbayern (reference number: 55.2.1-54-2532.2-11-12). At 11 or 15 weeks of age only mice with proteinuria (Albustix, Bayer AG, Leverkusen, Germany) were randomized into five different groups (n = 10) receiving different medicated diets: Three groups were fed with chow mixed with either 3, 10 or 30 mg/kg/day RO5459072, another group’s chow was mixed with 100 mg/kg/day mycophenolate mofetil (MMF), and one group received a standard diet (vehicle). The dose of MMF was chosen according to several studies reporting strong efficacy on SLE and lupus nephritis in MRL-(Fas)lpr mice[24]–[26]. […] At the age of 19 weeks all mice were sacrificed by cervical dislocation. Blood and urine samples were collected at different time points as indicated. In other experiments 7 week old female MRL-(Fas)lpr mice were randomized into three groups (n = 3) to receive a single intravenous injection of 10 µg sterile recombinant Cat-S and one group receiving vehicle (100 µl sterile PBS). One of the Cat-S groups was pretreated with 30 mg/kg/day RO5459072 starting one week prior to Cat-S injection; another group was pretreated with a total of four daily intra-peritoneal injections of the PAR-2 inhibitor GB83 (10 mg/kg).
Urinary albumin/creatinine ratios were determined using the Mouse Albumin ELISA Quantitation set (Bethyl Laboratories, Montgomery, TX) and the Creatinine FS kit (DiaSys Diagnostic Systems, Holzheim, Germany)[44]. BUN levels were determined in plasma samples using a Urea FS kit (DiaSys Diagnostic Systems). Mouse IgM, IgG and its isotypes IgG1, IgG2a and IgG2b plasma levels were measured using ELISA Sets (Bethyl Laboratories) at a plasma dilution of 1:1,000 to 1:100,000. Double-stranded DNA IgG and IgM antibodies were quantified as described. Briefly, 96 well Nunc-Immuno plates (Thermo Fisher Scientific, Roskilde, Denmark) were coated with poly-L-lysine (1:1 diluted with PBS) and incubated for two hours. […] Absorbance was measured at 450 nm using a Tecan Microplate Reader (Biotek, Winnoski, VT). Indirect immunofluorescence was used to quantify ANA in mouse plasma. […]
Mouse kidney tissue was fixed in 2% paraformaldehyde/2% glutaraldehyde and 0.1M sodium phosphate buffer (pH 7.4) for 24 hours and processed as described. Samples were analyzed with a 1200EX electron microscope (JEOL, Tokyo, Japan).

EC50 ([1]; average of 6 healthy volunteers, 16 h treatment, read-out: EC50 of lip10 (p10) induction in human B-cells, average): 15.8 nM
EC50 ([1]; donor D1, read-out: EC50 of p10 upregulation in human B-cells, donor D1): 26.4 nM
EC50 ([1]; donor D2, read-out: EC50 of p10 upregulation in human B-cells, donor D2): 15.8 nM
EC50 ([1]; donor D3, read-out: EC50 of p10 upregulation in human B-cells, donor D3): 19.1 nM
EC50 ([1]; donor D4, read-out: EC50 of p10 upregulation in human B-cells, donor D4): 9.4 nM
EC50 ([1]; donor D5, read-out: EC50 of p10 upregulation in human B-cells, donor D5): 12.6 nM
EC50 ([1]; donor D6, read-out: EC50 of p10 upregulation in human B-cells, donor D6): 11.5 nM
Compound: Cn1cc(-c2ccc(S(=O)(=O)[C@@H]3C[C@@H](C(=O)NC4(C#N)CC4)N(C(=O)C4(C(F)(F)F)CC4)C3)c(C(F)(F)F)c2)cn1 [RO5459072]
Cat-S-induced albuminuria ([2]; 30 min, RO5459072 30 mg/kg/day pretreatment, GB83 10 mg/kg i.p.): completely prevented; also recorded: entirely blocked
Cat-S-induced glomerular endothelial cell injury (TEM) ([2]; 24 h): completely prevented
